According to PMC9940446 (Bioorganic & medicinal chemistry letters, 2022):

Experiments:
MDM2 = conditions: read-out: binding affinity towards MDM2 (Kd); ref 22 (Thean et al.); cited from earlier work
[1] = Tumor uptake and tissue distribution in mice bearing SJSA-1 xenografts; type: in vivo, athymic mice; conditions: athymic, mouse, iv, 166.5 kBq, total radioactivity
[2] = In vivo metabolic stability; conditions: athymic mice without tumors, i.v., plasma 4 h post-injection; RP-HPLC; n = 2/time point
[3] = Lipophilicity, shake-flask n-octanol/PBS; type: physicochemical; conditions: n-octanol/phosphate-buffered saline, pH 7.4
[4] = system: SJSA-1 osteosarcoma cell line (MDM2-amplified, wild-type p53); type: cell-based, human; conditions: SJSA-1 cells, 50 μM VIP116, 2 h incubation
[5] = system: SJSA-1 human osteosarcoma xenografts; assay: Tumor uptake and tissue distribution in mice bearing SJSA-1 xenografts; type: in vivo, athymic mice

SMILES: CC(=O)N[C@@H](CCCCN)C(=O)NCCCCCC(=O)N[C@H](C(=O)N[C@@H](CO)C(=O)N[C@@H](Cc1ccccc1)C(=O)N[C@]1(C)CCCCCCC=CCCC[C@@](C)(C(=O)N[C@@H](CCC(=O)O)C(=O)N[C@@H](CC(N)=O)C(=O)N[C@@H](Cc2ccccc2)C(N)=O)NC(=O)[C@H](CC(C)C)NC(=O)[C@H](CC(C)C)NC(=O)[C@H](C)NC(=O)[C@H](Cc2c[nH]c3ccccc23)NC(=O)[C@H](Cc2ccc(O)cc2)NC(=O)[C@H](CCC(=O)O)NC1=O)[C@@H](C)O [VIP116]
- Kd (MDM2): 0.0151 ± 0.0017 µM

SMILES: CC(=O)N[C@@H](CCCCNC(=O)c1cccc(I)c1)C(=O)NCCCCCC(=O)N[C@H](C(=O)N[C@@H](CO)C(=O)N[C@@H](Cc1ccccc1)C(=O)N[C@]1(C)CCCCCCC=CCCC[C@@](C)(C(=O)N[C@@H](CCC(=O)O)C(=O)N[C@@H](CC(N)=O)C(=O)N[C@@H](Cc2ccccc2)C(N)=O)NC(=O)[C@H](CC(C)C)NC(=O)[C@H](CC(C)C)NC(=O)[C@H](C)NC(=O)[C@H](Cc2c[nH]c3ccccc23)NC(=O)[C@H](Cc2ccc(O)cc2)NC(=O)[C@H](CCC(=O)O)NC1=O)[C@@H](C)O [[*I]SIB-VIP116] [listing 1 of 2 here]
- tissue uptake at 0.5 h ([1]; blood): 8.33 ± 1.18 %ID/g
- tissue uptake at 2 h ([1]; tumor): 2.19 ± 0.56 %ID/g

SMILES: CC(=O)N[C@@H](CCCCNC(=O)c1cccc(I)c1)C(=O)NCCCCCC(=O)N[C@H](C(=O)N[C@@H](CO)C(=O)N[C@@H](Cc1ccccc1)C(=O)N[C@]1(C)CCCCCCC=CCCC[C@@](C)(C(=O)N[C@@H](CCC(=O)O)C(=O)N[C@@H](CC(N)=O)C(=O)N[C@@H](Cc2ccccc2)C(N)=O)NC(=O)[C@H](CC(C)C)NC(=O)[C@H](CC(C)C)NC(=O)[C@H](C)NC(=O)[C@H](Cc2c[nH]c3ccccc23)NC(=O)[C@H](Cc2ccc(O)cc2)NC(=O)[C@H](CCC(=O)O)NC1=O)[C@@H](C)O [[*I]SIB-VIP116] [listing 2 of 2 here]
- % of radioactivity in plasma as intact labeled peptide [2]: about 80%

SMILES: CC(=O)N[C@@H](CCCCNC(=O)c1cccc(I)c1)C(=O)NCCCCCC(=O)N[C@H](C(=O)N[C@@H](CO)C(=O)N[C@@H](Cc1ccccc1)C(=O)N[C@]1(C)CCCCCCC=CCCC[C@@](C)(C(=O)N[C@@H](CCC(=O)O)C(=O)N[C@@H](CC(N)=O)C(=O)N[C@@H](Cc2ccccc2)C(N)=O)NC(=O)[C@H](CC(C)C)NC(=O)[C@H](CC(C)C)NC(=O)[C@H](C)NC(=O)[C@H](Cc2c[nH]c3ccccc23)NC(=O)[C@H](Cc2ccc(O)cc2)NC(=O)[C@H](CCC(=O)O)NC1=O)[C@@H](C)O [[^125I]SIB-VIP116] [listing 1 of 2 here]
- logD [3]: 1.45 ± 0.05
- tissue uptake at 0.5 h ([1]; bladder): 0.61 ± 0.21 %ID/g
- tissue uptake at 2 h ([1]; bladder): 0.58 ± 0.34 %ID/g
- tissue uptake at 6 h ([1]; bladder): 0.95 ± 0.78 %ID/g
- tissue uptake at 24 h ([1]; bladder): 0.29 ± 0.09 %ID/g
- tissue uptake at 2 h ([1]; blood): 6.84 ± 1.92 %ID/g
- tissue uptake at 6 h ([1]; blood): 5.12 ± 0.9 %ID/g
- tissue uptake at 24 h ([1]; blood): 0.62 ± 0.2 %ID/g
- tissue uptake at 0.5 h ([1]; bone): 0.38 ± 0.19 %ID/g
- tissue uptake at 2 h ([1]; bone): 0.33 ± 0.23 %ID/g
- tissue uptake at 6 h ([1]; bone): 0.29 ± 0.2 %ID/g
- tissue uptake at 24 h ([1]; bone): 0.16 ± 0.04 %ID/g
- tissue uptake at 0.5 h ([1]; brain): 0.24 ± 0.13 %ID/g
- tissue uptake at 2 h ([1]; brain): 0.25 ± 0.08 %ID/g
- tissue uptake at 6 h ([1]; brain): 0.2 ± 0.06 %ID/g
- tissue uptake at 24 h ([1]; brain): 0.02 ± 0.01 %ID/g
- tissue uptake at 0.5 h ([1]; heart): 2.52 ± 0.49 %ID/g
- tissue uptake at 2 h ([1]; heart): 2.44 ± 0.49 %ID/g
- tissue uptake at 6 h ([1]; heart): 2.14 ± 0.38 %ID/g
- tissue uptake at 24 h ([1]; heart): 0.37 ± 0.08 %ID/g
- tissue uptake at 0.5 h ([1]; kidneys): 3.06 ± 1.82 %ID/g
- tissue uptake at 2 h ([1]; kidneys): 2.54 ± 0.5 %ID/g
- tissue uptake at 6 h ([1]; kidneys): 2.5 ± 0.48 %ID/g
- tissue uptake at 24 h ([1]; kidneys): 0.63 ± 0.12 %ID/g
- tissue uptake at 0.5 h ([1]; large intestine): 0.06 ± 0.06 %ID/g
- tissue uptake at 2 h ([1]; large intestine): 0.24 ± 0.2 %ID/g
- tissue uptake at 6 h ([1]; large intestine): 4.44 ± 1.9 %ID/g
- tissue uptake at 24 h ([1]; large intestine): 1.87 ± 1.29 %ID/g
- tissue uptake at 0.5 h ([1]; liver): 13.5 ± 6.18 %ID/g
- tissue uptake at 2 h ([1]; liver): 18.4 ± 1.45 %ID/g
- tissue uptake at 6 h ([1]; liver): 11.4 ± 4.46 %ID/g
- tissue uptake at 24 h ([1]; liver): 4.72 ± 2.84 %ID/g
- tissue uptake at 0.5 h ([1]; lungs): 4.27 ± 1.06 %ID/g
- tissue uptake at 2 h ([1]; lungs): 2.72 ± 1.16 %ID/g
- tissue uptake at 6 h ([1]; lungs): 2.49 ± 1.17 %ID/g
- tissue uptake at 24 h ([1]; lungs): 0.33 ± 0.19 %ID/g
- tissue uptake at 0.5 h ([1]; muscle): 0.16 ± 0.06 %ID/g
- tissue uptake at 2 h ([1]; muscle): 0.24 ± 0.07 %ID/g
- tissue uptake at 6 h ([1]; muscle): 0.25 ± 0.11 %ID/g
- tissue uptake at 24 h ([1]; muscle): 0.16 ± 0.09 %ID/g
- tissue uptake at 0.5 h ([1]; skin): 0.57 ± 0.17 %ID/g
- tissue uptake at 2 h ([1]; skin): 0.88 ± 0.18 %ID/g
- tissue uptake at 6 h ([1]; skin): 1.22 ± 0.47 %ID/g
- tissue uptake at 24 h ([1]; skin): 0.52 ± 0.13 %ID/g
- tissue uptake at 0.5 h ([1]; small intestine): 0.43 ± 0.09 %ID/g
- tissue uptake at 2 h ([1]; small intestine): 2.17 ± 0.99 %ID/g
- tissue uptake at 6 h ([1]; small intestine): 3.84 ± 1.29 %ID/g
- tissue uptake at 24 h ([1]; small intestine): 0.86 ± 0.35 %ID/g
- tissue uptake at 0.5 h ([1]; spleen): 1.29 ± 0.61 %ID/g
- tissue uptake at 2 h ([1]; spleen): 1.8 ± 0.65 %ID/g
- tissue uptake at 6 h ([1]; spleen): 1.99 ± 0.44 %ID/g
- tissue uptake at 24 h ([1]; spleen): 0.58 ± 0.24 %ID/g
- tissue uptake at 0.5 h ([1]; stomach): 0.34 ± 0.09 %ID/g
- tissue uptake at 2 h ([1]; stomach): 0.53 ± 0.17 %ID/g
- tissue uptake at 6 h ([1]; stomach): 1.9 ± 1.15 %ID/g
- tissue uptake at 24 h ([1]; stomach): 0.84 ± 0.43 %ID/g
- tissue uptake at 0.5 h ([1]; thyroid): 0.89 ± 0.17 %ID/g
- tissue uptake at 2 h ([1]; thyroid): 1.14 ± 0.43 %ID/g
- tissue uptake at 6 h ([1]; thyroid): 1.19 ± 0.36 %ID/g
- tissue uptake at 24 h ([1]; thyroid): 0.27 ± 0.14 %ID/g
- tissue uptake at 0.5 h ([1]; tumor): 1.8 ± 0.75 %ID/g
- tissue uptake at 6 h ([1]; tumor): 2.11 ± 0.29 %ID/g
- tissue uptake at 24 h ([1]; tumor): 0.36 ± 0.12 %ID/g

SMILES: CC(=O)N[C@@H](CCCCNC(=O)c1cccc(I)c1)C(=O)NCCCCCC(=O)N[C@H](C(=O)N[C@@H](CO)C(=O)N[C@@H](Cc1ccccc1)C(=O)N[C@]1(C)CCCCCCC=CCCC[C@@](C)(C(=O)N[C@@H](CCC(=O)O)C(=O)N[C@@H](CC(N)=O)C(=O)N[C@@H](Cc2ccccc2)C(N)=O)NC(=O)[C@H](CC(C)C)NC(=O)[C@H](CC(C)C)NC(=O)[C@H](C)NC(=O)[C@H](Cc2c[nH]c3ccccc23)NC(=O)[C@H](Cc2ccc(O)cc2)NC(=O)[C@H](CCC(=O)O)NC1=O)[C@@H](C)O [[^125I]SIB-VIP116] [listing 2 of 2 here]
- blocking of cell uptake [4]: > 85%
- Blood radioactivity ([5]; 30 min after i.v. injection, n = 5): 8.33 ± 1.18 %ID/g
- radioactivity found in the urine ([5]; 2 h after i.v. injection (data not shown)): ≤ 0.93 % ID
- Tumor uptake (SJSA-1 xenograft) ([5]; 2 h after i.v. injection, n = 5): 2.19 ± 0.56 %ID/g
